The source of these data is US10183917B2, “Tricyclic compounds and uses thereof in medicine” (Sunshine Lake Pharma Co., Ltd., priority 2015, dated 2019).

SMILES strings stand for the structures.

Series [1] concerns the target nuclear receptor FXR recombinant protein (Homo sapiens (Human), UniProt Q96RI1). Nature of the series: TR-FRET Farnesoid X Receptor Coactivator Assay. The format is biochemical. Particulars: Fluorescein-SRC2-2, Tb anti-GST antibody, 1 h room temperature. How it is done:
Example 36: TR-FRET Farnesoid X Receptor Coactivator Assay
Purchasing invitrogen PV4833 kits.
First, the required amount of the compound was weighed and dissolved in 100% DMSO at the maximum concentration of 3000 μM. The solution at the maximum concentration was diluted by 3-fold serial dilution in DMSO to get 10 concentrations;
Second, the above prepared solutions of different concentrations were diluted to 100-fold with a buffer supplied with the kit, followed by mixing and then 10 μL of the diluted solution was added to a 384 well plate;
Third, nuclear receptor FXR recombinant protein was diluted with a buffer to give a concentration of 4×, and 5 μL of the diluent was added to the 384 well plate of second step;
Fourth, Fluorescein-SRC2-2 and Tb anti-GST antibody were diluted with a buffer to give a concentration of 4× respectively. Then two reagents were mixed together, and 10 μL of the mixture was added to the 384 well plate of third step;
Finally, the solution of the 384 well above was mixed uniformly by centrifuging, and then incubated at room temperature for 1 h. Then the TR-FRET Endpoint was used for measuring the solution at wavelengths of 520 nm, 495 nm and 337 nm. EC50 values were calculated according to the measured value of ER=520 nm/495 nm.

A short description of series [2]: Pharmacokinetics test in SD rats (iv and po). The format is in vivo. As to the method: Example 37: Pharmacokinetics Test
Experimental animals: six healthy adult male SD rats (purchased from Hunan Slack King of Laboratory Animal Co. Ltd.) were divided into two groups, three rats in each group, and the two grops were given intravenous injection and oral administration respectively.
Drug preparation: a quantity of a compound of the present invention was weighed, and 5% DMSO, 10% Kolliphor HS15 and 85% saline (0.9%) were added to give target concentrations of the compound solution.
Administration and sample collection: animals were fasting for 12 h until administered, eating 3 h after the administration. Hind legs of SD rats of one group were given intravenous injection (IV, 1 mg/kg) and SD rats of the other group were given oral administration (PO, 5 mg/kg) respectively. Then blood was collected in the rat tail vein at the time point 0, 0.083, 0.25, 0.5, 1, 2, 4, 6, 8, 24 h respectively, and the blood volume was about 200-400 μL/time points. After the collection of whole blood at each time point, the colleted blood was set in K2EDTA anticoagulant tube, and the tube was placed in the incubator with ice packs. All samples were centrifuged for 5 min at 4° C. at 4600 r/min within 15 min. Plasma was separated and colleted. The concentrations of different compounds in the plasma of the rats after adminstration were measured using LC/MS/MS method, and the pharmacokinetic parameters were calculated according to the curve of the drug concentration-time.
Pharmacokinetic properties of the compounds of the present invention were tested by the experiment above, and the pharmacokinetic parameters were shown in Table 3.

Where [3] appears, read: male, SD, rat, in vivo, iv, 1 mg/kg.
The mark [4] stands for this setting: male, SD, rat, in vivo, po, 5 mg/kg.

Sequence of nuclear receptor FXR recombinant protein (Q96RI1 258-486, other chains not shown): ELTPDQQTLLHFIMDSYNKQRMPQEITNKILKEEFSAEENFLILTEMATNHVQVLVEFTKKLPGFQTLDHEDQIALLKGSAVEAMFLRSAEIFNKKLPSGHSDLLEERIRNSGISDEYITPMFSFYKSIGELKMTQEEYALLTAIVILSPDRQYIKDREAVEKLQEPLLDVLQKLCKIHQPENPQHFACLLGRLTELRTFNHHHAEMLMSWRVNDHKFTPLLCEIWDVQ

What is called EC50 is the concentration at which the effect is half-maximal. Take `CS(=O)(=O)NC(=O)c1ccc2c(c1)Oc1ccc(OCc3c(-c4c(Cl)cccc4Cl)noc3C3CC3)nc1CC2` [Example 19, 2-((5-cyclopropyl-3-(2,6-dichlorophenyl)isoxazol-4-yl)methoxy)-N-(methylsulfonyl)-10,11-dihydrobenzo[6,7]oxepino[3,2-b]pyridine-7-carboxamide]: in series [1], the EC50 is 6 nM.
In general, AUC(0-inf) refers to the area under the concentration-time curve extrapolated to infinity. A high value points to high exposure. The AUC(0-t) is the area under the concentration-time curve up to a stated or last time point. A high value points to more exposure. For orientation: Cmax means the maximum level reached in the sampled fluid or tissue. One may read the MRT inf as a mean duration of stay, worked out from the concentration-time curve. As a reminder, the Tmax is the time at which the peak concentration occurs. One may read the half-life as the time in which the quantity being followed falls by half. Regarding `CC(C)c1cnn(-c2c(Cl)cccc2Cl)c1COc1ccc2c(n1)CCc1ccc(C(=O)O)cc1O2` [Example 17, 2-((1-(2,6-dichlorophenyl)-4-isopropyl-1H-pyrazol-5-yl)methoxy)-10,11-dihydrobenzo[6,7]oxepino[3,2-b]pyridine-7-carboxylic acid], the EC50 in series [1] worked out at 23 nM. The F in series [2] (male, SD, rat, in vivo) came to 67.7%. In series [2] (setting [3]), this compound had an AUC(0-inf) of 1840 ng·h/mL, an AUC(0-t) of 1840 ng·h/mL, a Cmax of 4280 ng/mL and an MRT inf of 19.2 min. In series [2] (setting [3]), the Tmax was determined as 4.8 min, the Vd came to 0.89 L/kg, the clearance was found to be 50 mL/min/kg and the half-life was 25.8 min. Also, in series [2] (setting [4]), the AUC(0-inf) was found to be 6240 ng·h/mL, the AUC(0-t) was found to be 6230 ng·h/mL, the concentration peaked (Cmax) at 5960 ng/mL and the MRT inf turned out to be 50.4 min. For the same compound, in series [2] (setting [4]), the Tmax amounted to 19.8 min and the half-life was 47.4 min.
As to `O=C(O)c1ccc2c(c1)C(=O)c1ccc(OCc3c(-c4c(Cl)cccc4Cl)noc3C3CC3)cc1CC2` [Example 2, 8-((5-cyclopropyl-3-(2,6-dichlorophenyl)isoxazol-4-yl)methoxy)-5-oxo-10,11-dihydro-5H-dibenzo[a,d][7]annulene-3-carboxylic acid], in series [1], the EC50 is 4 nM. Further, in series [2] (male SD rats, iv 1 mg/kg), the AUCINF came out at 1210 ng·h/mL, the AUClast is 1180 ng·h/mL, the Cl is 14 mL/min/kg and the Cmax came out at 2560 ng/mL. In addition, in series [2] (male SD rats, iv 1 mg/kg), the MRTINF is 63 min, the T1/2 stood at 109 min, the Tmax turned out to be 4.8 min and the Vss was 0.86 L/kg. In series [2] (male SD rats, po 5 mg/kg), this compound came in with an AUCINF of 11300 ng·h/mL, an AUClast of 11200 ng·h/mL, a Cmax of 9970 ng/mL and an MRTINF of 141 min. For the same compound, in series [2] (male SD rats, po 5 mg/kg), the T1/2 worked out at 250 min and the Tmax turned out to be 19.8 min. In series [2] (male SD rats, po 5 mg/kg vs iv 1 mg/kg), this compound yielded an F of 189.7%.
With `O=C(O)c1ccc2c(c1)Oc1ccc(OCc3c(-c4c(Cl)cccc4Cl)noc3C3CC3)nc1CC2` [Example 3, 2-((5-cyclopropyl-3-(2,6-dichlorophenyl)isoxazol-4-yl)methoxy)-10,11-dihydrobenzo[6,7]oxepino[3,2-b]pyridine-7-carboxylic acid], the EC50 in series [1] is 37 nM.
As to `O=C(O)c1ccc2c(c1)Oc1ccc(OCc3c(-c4c(Cl)cccc4Cl)noc3C3CC3)cc1CC2` [Example 1, 8-((5-cyclopropyl-3-(2,6-dichlorophenyl)isoxazol-4-yl)methoxy)-10,11-dihydrodibenzo[b,f]oxepine-3-carboxylic acid], the EC50 in series [1] was found to be 18 nM.
With `O=C(NCCS(=O)(=O)O)c1ccc2c(c1)Oc1ccc(OCc3c(-c4c(Cl)cccc4Cl)noc3C3CC3)nc1CC2` [Example 29, 2-(2-((5-cyclopropyl-3-(2,6-dichlorophenyl)isoxazol-4-yl)methoxy)-10,11-dihydrobenzo[6,7]oxepino[3,2-b]pyridine-7-carboxamido)ethanesulfonic acid], the EC50 in series [1] turned out to be 11 nM.
With `O=C(O)c1ccc2c(c1)Oc1ccc(OCc3c(-c4c(Cl)cccc4Cl)noc3C3CC3)cc1S(=O)(=O)C2` [Example 5, 8-((5-cyclopropyl-3-(2,6-dichlorophenyl)isoxazol-4-yl)methoxy)-11H-dibenzo[b,f][1,4]oxathiepine-3-carboxylic acid-10,10-dioxide], the EC50 in series [1] came out at 6 nM. The F in series [2] (male, SD, rat, in vivo) was 62.6%. Further, in series [2] (setting [3]), the AUC(0-inf) worked out at 941 ng·h/mL, the AUC(0-t) came out at 926 ng·h/mL, the Cmax was 2420 ng/mL and the MRT inf is 45.6 min. In series [2] (setting [3]), the Tmax is 4.8 min, the Vd came to 0.82 L/kg, the clearance is 18 mL/min/kg and the half-life was 93.6 min. Besides, in series [2] (setting [4]), the AUC(0-inf) was 3350 ng·h/mL, the AUC(0-t) is 2900 ng·h/mL, the Cmax amounted to 1300 ng/mL and the MRT inf was 514 min. Further, in series [2] (setting [4]), the Tmax worked out at 19.8 min and the half-life was 702 min.
Turning to `O=C(O)c1ccc2c(c1)Oc1ccc(OCc3c(-c4c(Cl)cccc4Cl)noc3C3CC3)nc1CCC2` [Example 31, 3-((5-cyclopropyl-3-(2,6-dichlorophenyl)isoxazol-4-yl)methoxy)-6,7-dihydro-5H-benzo[7,8]oxocino[3,2-b]pyridine-10-carboxylic acid], in series [1], the EC50 is 56 nM.
As to `O=C(O)c1ccc2c(c1)S(=O)(=O)c1ccc(OCc3c(-c4c(Cl)cccc4Cl)noc3C3CC3)cc1CC2` [Example 11, 8-((5-cyclopropyl-3-(2,6-dichlorophenyl)isoxazol-4-yl)methoxy)-10,11-dihydrodibenzo[b,f]thiepine-3-carboxylic acid-5,5-dioxide], in series [1], the EC50 is 56 nM.
On to `O=C(O)c1ccc2c(c1)Oc1ccc(OCc3c(-c4c(Cl)cccc4Cl)noc3C3CC3)cc1SC2` [Example 6, 8-((5-cyclopropyl-3-(2,6-dichlorophenyl)isoxazol-4-yl)methoxy)-11H-dibenzo [b,f][1,4]oxathiepine-3-carboxylic acid], for which, in series [1], the EC50 came out at 55 nM.
Take `O=C(O)c1ccc2c(c1)Oc1ccc(OCc3c(-c4c(Cl)cccc4Cl)noc3C3CC3)nc1C=C2` [Example 30, 2-((5-cyclopropyl-3-(2,6-dichlorophenyl)isoxazol-4-yl)methoxy)benzo[6,7]oxepino[3,2-b]pyridine-7-carboxylic acid]: the EC50 in series [1] is 27 nM.
For the compound `O=C(O)c1cnc2c(c1)Oc1cnc(OCc3c(-c4c(Cl)cccc4Cl)noc3C3CC3)cc1CC2` [Example 33, 8-((5-cyclopropyl-3-(2,6-dichlorophenyl)isoxazol-4-yl)methoxy)-10,11-dihydrooxepino[3,2-b:7,6-c′]dipyridine-3-carboxylic acid], the EC50 in series [1] was 18 nM.
With `CS(=O)(=O)c1ccc2c(c1)Oc1ccc(OCc3c(-c4c(Cl)cccc4Cl)noc3C3CC3)nc1CC2` [Example 32, 2-((5-cyclopropyl-3-(2,6-dichlorophenyl)isoxazol-4-yl)methoxy)-7-(methylsulfonyl)-10,11-dihydrobenzo[6,7]oxepino[3,2-b]pyridine], the EC50 in series [1] is 54 nM.
The same measure, in the same setting: the same measure for `O=C(O)c1ccc2c(c1)Oc1ccc(OCc3c(-c4c(Cl)cccc4Cl)noc3C3CC3)cc1[S+]([O-])C2` (centres unmarked) [Example 7, 8-((5-cyclopropyl-3-(2,6-dichlorophenyl)isoxazol-4-yl)methoxy)-11H-dibenzo [b,f][1,4]oxathiepine-3-carboxylic acid-10-oxide]: 15 nM; for `CC(C)c1nnn(-c2c(Cl)cccc2Cl)c1COc1ccc2c(c1)CCc1ccc(C(=O)O)cc1C2=O` [Example 27, 8-((1-(2,6-dichlorophenyl)-4-isopropyl-1H-1,2,3-triazol-5-yl)methoxy)-5-oxo-10,11-dihydro-5H-dibenzo[a,d][7]annulene-3-carboxylic acid]: 12 nM; for `O=C(O)c1ccc2c(c1)C1(CC1)c1ccc(OCc3c(-c4c(Cl)cccc4Cl)noc3C3CC3)cc1CC2` [Example 9, 2′-((5-cyclopropyl-3-(2,6-dichlorophenyl)isoxazol-4-yl)methoxy)-10′,11′-dihydrospiro[cyclopropane-1,5′-dibenzo[a,d][7]annulene]-7′-carboxylic acid]: 38 nM.
With `O=C(O)c1ccc2c(c1)CCc1ccc(OCc3c(-c4c(Cl)cccc4Cl)noc3C3CC3)cc1O2` [Example 15, 7-((5-cyclopropyl-3-(2,6-dichlorophenyl)isoxazol-4-yl)methoxy)-10,11-dihydrodibenzo[b,f]oxepine-2-carboxylic acid], the EC50 in series [1] stood at 35 nM.
